Patent US20240245677A1, “SELECTED COMPOUNDS FOR TARGETED DEGRADATION OF BRD9” (C4 THERAPEUTICS, INC., priority 2021, published 2024)
Several values for one entry are separate records, joined by “and”; a condition that tells them apart may be missing. Equal entries are not always repeated. Where two headings read alike, the source gives them in different places.

Test: Pharmacokinetic study in male CD1 mice
Assay type: in vivo, mouse
Conditions: for concentration at 0.033 h / concentration at 0.33 h / concentration at 1 h / concentration at 2 h / concentration at 4 h / concentration at 8 h / concentration at 24 h / AUC(0-t): male, CD1, mouse
Method: The pharmacokinetic (PK) profile in plasma of Compound 1 was determined in male CD1 mice following single dose intravenous (IV) (2 mg/kg) and per os (PO) (10 mg/kg) administration. This study was performed under non-GLP conditions, and unless otherwise stated, all analytical reagents were at least standard laboratory reagent grade, and deionized water was prepared at the study site. The characteristics of Compound 1 used in this study were as follows: molecular weight of base, 710.78; molecular weight of Compound 1 with salt, 824.81; purity on as is basis, 99.28%. All animals were housed in cages with clean bedding and maintained and monitored for good health and at the discretion of the laboratory animal veterinarian. Certified rodent diet was provided, and water was available ad libitum. […] Normal healthy animals certified by the attending veterinarian were selected and acclimatized for a minimum of three days prior to initiation of the study. Animals were identified by body markings. Test animals were weighed prior to drug administration, and the standard weight of the animals used was 30 grams. The animals were divided into two groups, IV group and PO group, with each group containing 3 test animals each and 2 spare animals. The IV dose was administered by intravenous injection into the tail vein and PO dose was administered via oral gavage. The dosing volume was 5 mL/kg body weight for both groups. The dosing concentration was 0.4 mg/mL for the IV group and 2 mg/mL for the PO group. The animals were in fasted state during the study. For both dosing groups, blood was collected from the saphenous vein (serial sampling) for plasma isolation at 0.033, 0.33, 1, 2, 4, 6, 8, and 24 hour timepoints. The anti-coagulant solution used was 6% (v/v) sodium citrate (200 mM, pH 4.79). For sample collection, the mice were restrained, and the back of the hind leg was shaved until the saphenous vein was visible. The hind limb was immobilized, and slight pressure was applied gently above the knee joint. While taking aseptic precautions, the vein was punctured using a 20 G needle and 20-30 μL of blood was collected in pre-labeled pre-chilled tubes. After blood collection from each animal, the sample from that animal was recorded in the sample collection sheet. After collection of each blood sample, the blood sample was stored on ice prior to centrifugation. Blood samples were centrifuged within 0.5 hours of collection to separate plasma. Centrifugation was conducted at 2500×g for 15 minutes at 4° C. The plasma was separated and transferred to pre-labeled micro-centrifuge tubes and promptly frozen at -80° C.±10° C. and stored until bioanalysis was performed. Each sample was identified by test compound, group, animal number, and collection time point. A fit-for-purpose bioanalytical method was developed for analyzing the plasma samples. One set of nine standards was run before the sample batch and was used for plotting the calibration curve. Quality control (QC) samples were prepared at a minimum of three concentrations, i.e., LQC (not more than 5 times to that of lowest standard concentration), HQC (not less than 75% of the highest standard concentration), and MQC (between the low and high concentration). A minimum of 6 QC samples were prepared (three concentrations in duplicate). One set of QC (LQC, MQC and HQC) samples were analyzed before and after the sample batch. Samples were analyzed by Exion AD (Sciex, Framingham, MA, USA) high-pressure liquid chromatography (HPLC) system followed by tandem mass spectroscopy analysis (MS/MS) with Q TRAP 4500 (Sciex, Framingham, MA). The samples were resolved on a Kinetex® EVO C18 4.5*50 mm, 5 μm column (Phenomenex, Inc., Torrance, CA, USA). […] The flow rate was set at 1 mL/min. […] A positive electrospray ionization (ESI) method was used for detecting analytes and internal standard by mass spectroscopy. The MRM conditions were […]

[1] = mouse, plasma, male CD1 mice, 2 mg/kg IV, Mean
[2] = mouse, plasma, male CD1 mice, 10 mg/kg PO, Mean

For `COc1cc(-c2cn(C)c(=O)c(C)c2C)cc(OC)c1CN1CC[C@H](N2CCN(c3ccc(N[C@H]4CCC(=O)NC4=O)cc3F)CC2)C(F)(F)C1` [Compound 1, (S)-3-((4-(4-((S)-1-(2,6-dimethoxy-4-(1,4,5-trimethyl-6-oxo-1,6-dihydropyridin-3-yl)benzyl)-3,3-difluoropiperidin-4-yl)piperazin-1-yl)-3-fluorophenyl)amino)-piperidine-2,6-dione], the “Plasma Concentration, individual mice” value (2 mg/kg IV, 0.033 h) was 1282.85 ng/mL and 1230.25 ng/mL, the “Plasma Concentration, individual mice” value (2 mg/kg IV, 0.33 h) was 1069.92 ng/mL and 907.03 ng/mL and the “Plasma Concentration, individual mice” value (2 mg/kg IV, 1 h) was 778.91 ng/mL and 554.87 ng/mL. The “Plasma Concentration, individual mice” value (2 mg/kg IV, 2 h) was 530.20 ng/mL and 551.12 ng/mL, the “Plasma Concentration, individual mice” value (2 mg/kg IV, 4 h) was 402.36 ng/mL and 398.41 ng/mL and the “Plasma Concentration, individual mice” value (2 mg/kg IV, 8 h) was 230.84 ng/mL and 279.05 ng/mL. For the same molecule, the “Plasma Concentration, individual mice” value (2 mg/kg IV, 24 h) was 8.14 ng/mL and 10.81 ng/mL, the “Plasma Concentration, individual mice” value (10 mg/kg PO, 0.033 h) was 113.39 ng/mL and 45.23 ng/mL and 29.34 ng/mL and the “Plasma Concentration, individual mice” value (10 mg/kg PO, 0.33 h) was 1350.89 ng/mL and 1805.33 ng/mL. For the same molecule, the “Plasma Concentration, individual mice” value (10 mg/kg PO, 1 h) was 3702.63 ng/mL and 3513.39 ng/mL, the “Plasma Concentration, individual mice” value (10 mg/kg PO, 2 h) was 3236.77 ng/mL and 3069.59 ng/mL and the “Plasma Concentration, individual mice” value (10 mg/kg PO, 4 h) was 1775.48 ng/mL and 1635.06 ng/mL. For the same molecule, the “Plasma Concentration, individual mice” value (10 mg/kg PO, 8 h) was 1094.97 ng/mL and 687.92 ng/mL, the “Plasma Concentration, individual mice” value (10 mg/kg PO, 24 h) was 40.19 ng/mL and 35.09 ng/mL and the CI (male CD1 mice, 2 mg/kg IV, Mean) was 6.201 mL/min/kg. It also gave a concentration at 0.033 h (plasma, intravenous, 2 mg/kg, 2 mg/kg IV, 0.033 h, read-out: Plasma Concentration, Average) of 1400 ng/mL, a concentration at 0.033 h (plasma, intravenous, 2 mg/kg, 2 mg/kg IV, 0.033 h, read-out: Plasma Concentration, individual mice) of 1690 ng/mL and a concentration at 0.33 h (plasma, intravenous, 2 mg/kg, 2 mg/kg IV, 0.33 h, read-out: Plasma Concentration, Average) of 1090 ng/mL. It also gave a concentration at 0.33 h (plasma, intravenous, 2 mg/kg, 2 mg/kg IV, 0.33 h, read-out: Plasma Concentration, individual mice) of 1300 ng/mL, a concentration at 1 h (plasma, intravenous, 2 mg/kg, 2 mg/kg IV, 1 h, read-out: Plasma Concentration, Average) of 760 ng/mL and a concentration at 1 h (plasma, intravenous, 2 mg/kg, 2 mg/kg IV, 1 h, read-out: Plasma Concentration, individual mice) of 947 ng/mL. It also gave a concentration at 2 h (plasma, intravenous, 2 mg/kg, 2 mg/kg IV, 2 h, read-out: Plasma Concentration, Average) of 630 ng/mL, a concentration at 2 h (plasma, intravenous, 2 mg/kg, 2 mg/kg IV, 2 h, read-out: Plasma Concentration, individual mice) of 809 ng/mL and a concentration at 4 h (plasma, intravenous, 2 mg/kg, 2 mg/kg IV, 4 h, read-out: Plasma Concentration, Average) of 456 ng/mL. It also gave a concentration at 4 h (plasma, intravenous, 2 mg/kg, 2 mg/kg IV, 4 h, read-out: Plasma Concentration, individual mice) of 567 ng/mL, a concentration at 8 h (plasma, intravenous, 2 mg/kg, 2 mg/kg IV, 8 h, read-out: Plasma Concentration, Average) of 256 ng/mL and a concentration at 8 h (plasma, intravenous, 2 mg/kg, 2 mg/kg IV, 8 h, read-out: Plasma Concentration, individual mice) of 257 ng/mL. It also gave a concentration at 24 h (plasma, intravenous, 2 mg/kg, 2 mg/kg IV, 24 h, read-out: Plasma Concentration, Average) of 10.2 ng/mL, a concentration at 24 h (plasma, intravenous, 2 mg/kg, 2 mg/kg IV, 24 h, read-out: Plasma Concentration, individual mice) of 11.5 ng/mL and an AUC(0-t) (plasma, iv, 2 mg/kg, male CD1 mice, 2 mg/kg IV, Mean) of 5390 ng·h/mL. It also gave a concentration at 0.033 h (plasma, oral, 10 mg/kg, 10 mg/kg PO, 0.033 h, read-out: Plasma Concentration, Average) of 62.7 ng/mL, a concentration at 0.33 h (plasma, oral, 10 mg/kg, 10 mg/kg PO, 0.33 h, read-out: Plasma Concentration, Average) of 1750 ng/mL and a concentration at 0.33 h (plasma, oral, 10 mg/kg, 10 mg/kg PO, 0.33 h, read-out: Plasma Concentration, individual mice) of 2100 ng/mL. It also gave a concentration at 1 h (plasma, oral, 10 mg/kg, 10 mg/kg PO, 1 h, read-out: Plasma Concentration, Average) of 3370 ng/mL, a concentration at 1 h (plasma, oral, 10 mg/kg, 10 mg/kg PO, 1 h, read-out: Plasma Concentration, individual mice) of 2890 ng/mL and a concentration at 2 h (plasma, oral, 10 mg/kg, 10 mg/kg PO, 2 h, read-out: Plasma Concentration, Average) of 3150 ng/mL. For the same molecule, the concentration at 2 h (plasma, oral, 10 mg/kg, 10 mg/kg PO, 2 h, read-out: Plasma Concentration, individual mice) was 3150 ng/mL, the concentration at 4 h (plasma, oral, 10 mg/kg, 10 mg/kg PO, 4 h, read-out: Plasma Concentration, Average) was 1770 ng/mL and the concentration at 4 h (plasma, oral, 10 mg/kg, 10 mg/kg PO, 4 h, read-out: Plasma Concentration, individual mice) was 1880 ng/mL. For the same molecule, the concentration at 8 h (plasma, oral, 10 mg/kg, 10 mg/kg PO, 8 h, read-out: Plasma Concentration, Average) was 983 ng/mL, the concentration at 8 h (plasma, oral, 10 mg/kg, 10 mg/kg PO, 8 h, read-out: Plasma Concentration, individual mice) was 1170 ng/mL and the concentration at 24 h (plasma, oral, 10 mg/kg, 10 mg/kg PO, 24 h, read-out: Plasma Concentration, Average) was 37.8 ng/mL. The concentration at 24 h (plasma, oral, 10 mg/kg, 10 mg/kg PO, 24 h, read-out: Plasma Concentration, individual mice) was 38.2 ng/mL, the AUC(0-t) (plasma, po, 10 mg/kg, male CD1 mice, 10 mg/kg PO, Mean, first AUClast column) was 20000 ng·h/mL and the AUC(0-t) (plasma, po, 10 mg/kg, male CD1 mice, 10 mg/kg PO, Mean, second AUClast column) was 20200 ng·h/mL. The AUC(0-inf) [1] was 5450 ng·h/mL, the C0 [1] was 1440 ng/mL and the MRT last [1] was 5.15 h. The half-life [1] was 3.65 h, the Vd (mouse, plasma, male CD1 mice, 2 mg/kg IV, Mean, read-out: Vdss) was 2.01 L/kg and the Cmax [2] was 3460 ng/mL. It also gave an MRT last [2] of 5.38 h, a Tmax [2] of 1.33 h and a bioavailability [2] of 74.1%. The half-life [2] was 3.54 h.
